From PubChem BioAssay (NCI)
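Growth conditions: 96-well plates. Treatment: test compound, 48 hours, 5 concentrations. Analysis: linear interpolation between bracketing concentrations; unreached endpoints set to highest concentration. The concentration for 50% growth inhibition is given as GI50. Definition used: TGI = concentration required for complete inhibition of growth.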

What was measured:
Experiment in all cases: DTP human tumour cell line panel, 48 h
[1] = test system: 786-0 renal
[2] = test system: A498 renal
[3] = test system: A549 NSCLC
[4] = test system: ACHN renal
[5] = test system: BT-549 breast
[6] = test system: CAKI-1 renal
[7] = test system: CCRF-CEM leukemia
[8] = test system: COLO 205 colon
[9] = test system: DU-145 prostate
[10] = test system: EKVX NSCLC
[11] = test system: HCC-2998 colon
[12] = test system: HCT-116 colon
[13] = test system: HCT-15 colon
[14] = test system: HL-60(TB) leukemia
[15] = test system: HOP-62 NSCLC
[16] = test system: HOP-92 NSCLC
[17] = test system: HS 578T breast
[18] = test system: HT29 colon
[19] = test system: IGROV1 ovarian
[20] = test system: K-562 leukemia
[21] = test system: KM12 colon
[22] = test system: LOX IMVI melanoma
[23] = test system: M14 melanoma
[24] = test system: MALME-3M melanoma
[25] = test system: MCF7 breast
[26] = test system: MDA-MB-231 breast
[27] = test system: MDA-MB-435
[28] = test system: MOLT-4 leukemia
[29] = test system: NCI-H226 lung
[30] = test system: NCI-H23 lung
[31] = test system: NCI-H460 lung
[32] = test system: NCI-H522 lung
[33] = test system: NCI/ADR-RES ovarian
[34] = test system: OVCAR-3 ovarian
[35] = test system: OVCAR-4 ovarian
[36] = test system: OVCAR-5 ovarian
[37] = test system: OVCAR-8 ovarian
[38] = test system: PC-3 prostate
[39] = test system: RPMI-8226 leukemia
[40] = test system: RXF 393 renal
[41] = test system: SF-268 CNS
[42] = test system: SF-295 CNS
[43] = test system: SF-539 CNS
[44] = test system: SK-MEL-2 melanoma
[45] = test system: SK-MEL-28 melanoma
[46] = test system: SK-MEL-5 melanoma
[47] = test system: SK-OV-3 ovarian
[48] = test system: SN12C renal
[49] = test system: SNB-19 CNS
[50] = test system: SNB-75 CNS
[51] = test system: SR leukemia
[52] = test system: SW-620 colon
[53] = test system: T-47D breast
[54] = test system: TK-10 renal
[55] = test system: U251 CNS
[56] = test system: UACC-257 melanoma
[57] = test system: UACC-62 melanoma
[58] = test system: UO-31 renal

`NC(=O)c1cc(I)ccc1NC(=O)/C=C/c1ccccc1Cl` gave a GI50 [1] of 770 nM, a TGI [1] of 20000 nM and a GI50 [2] of 483 nM. It also gave a TGI [2] of 8010 nM, a GI50 [3] of 1180 nM and a TGI [3] of 25200 nM. The GI50 [4] was 2440 nM, the TGI [4] was over 73600 nM and the GI50 [5] was 816 nM. For the same molecule, the TGI [5] was 94700 nM, the GI50 [6] was 405 nM and the TGI [6] was 3780 nM. It also gave a GI50 [7] of 363 nM, a GI50 [8] of 651 nM and a TGI [8] of 5700 nM. The GI50 [9] was 837 nM, the TGI [9] was 5640 nM and the GI50 [10] was 1330 nM. It also gave a TGI [10] of over 69000 nM, a GI50 [11] of 969 nM and a TGI [11] of 5610 nM. For the same molecule, the GI50 [12] was 465 nM, the TGI [12] was 11900 nM and the GI50 [13] was 657 nM. For the same molecule, the TGI [13] was over 68300 nM, the GI50 [14] was 158 nM and the TGI [14] was 631 nM. The GI50 [15] was 4900 nM, the TGI [15] was 33500 nM and the GI50 [16] was 7220 nM. It also gave a TGI [16] of 36400 nM, a GI50 [17] of 340 nM and a TGI [17] of 2190 nM. For the same molecule, the GI50 [18] was 362 nM, the TGI [18] was 14500 nM and the GI50 [19] was 352 nM. For the same molecule, the TGI [19] was 16900 nM, the GI50 [20] was 313 nM and the TGI [20] was 3430 nM. It also gave a GI50 [21] of 442 nM, a TGI [21] of 4900 nM and a GI50 [22] of 1820 nM. It also gave a TGI [22] of 98700 nM, a GI50 [23] of 621 nM and a TGI [23] of 24800 nM. The GI50 [24] was 211 nM, the TGI [24] was 17600 nM and the GI50 [25] was 333 nM. It also gave a TGI [25] of 25700 nM, a GI50 [26] of 1630 nM and a TGI [26] of 31900 nM. It also gave a GI50 [27] of 204 nM, a TGI [27] of 578 nM and a GI50 [28] of 765 nM. It also gave a GI50 [29] of 1610 nM, a TGI [29] of over 60600 nM and a GI50 [30] of 1070 nM. It also gave a TGI [30] of 19600 nM, a GI50 [31] of 413 nM and a TGI [31] of 4700 nM. For the same molecule, the GI50 [32] was 334 nM, the TGI [32] was 1640 nM and the GI50 [33] was 506 nM. It also gave a TGI [33] of 4650 nM, a GI50 [34] of 271 nM and a TGI [34] of 638 nM. For the same molecule, the GI50 [35] was 2260 nM, the TGI [35] was 67700 nM and the GI50 [36] was 3800 nM. The TGI [36] was 37200 nM, the GI50 [37] was 3000 nM and the TGI [37] was over 38800 nM. It also gave a GI50 [38] of 572 nM, a TGI [38] of over 35400 nM and a GI50 [39] of 504 nM. For the same molecule, the TGI [39] was 4660 nM, the GI50 [40] was 375 nM and the TGI [40] was 2180 nM. It also gave a GI50 [41] of 640 nM, a TGI [41] of 31000 nM and a GI50 [42] of 592 nM. It also gave a TGI [42] of 19000 nM, a GI50 [43] of 410 nM and a TGI [43] of 2830 nM. The GI50 [44] was 628 nM, the TGI [44] was 30100 nM and the GI50 [45] was 374 nM. The TGI [45] was 21800 nM, the GI50 [46] was 366 nM and the TGI [46] was 13000 nM. It also gave a GI50 [47] of 529 nM, a TGI [47] of 14900 nM and a GI50 [48] of 1320 nM. It also gave a TGI [48] of 36700 nM, a GI50 [49] of 869 nM and a TGI [49] of over 47200 nM. For the same molecule, the GI50 [50] was 995 nM, the TGI [50] was 25300 nM and the GI50 [51] was 260 nM. The TGI [51] was 952 nM, the GI50 [52] was 462 nM and the TGI [52] was over 39600 nM. It also gave a GI50 [53] of 3130 nM, a TGI [53] of over 90800 nM and a GI50 [54] of 2480 nM. For the same molecule, the GI50 [55] was 578 nM, the TGI [55] was 19500 nM and the GI50 [56] was 38700 nM. It also gave a TGI [56] of over 100000 nM, a GI50 [57] of 312 nM and a TGI [57] of 48700 nM. For the same molecule, the GI50 [58] was 1790 nM and the TGI [58] was 31800 nM.
